# PubChem BioAssay (NCI)
#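 1) Cells in 96-well plates. 2) Compound, 48 h, 5 concentrations. 3) Linear interpolation between surrounding doses. 4) Unreached endpoint = highest concentration. Here, GI50 denotes the concentration required for 50% inhibition of growth. Definition used: TGI = concentration required for complete inhibition of growth.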
# Assays:
# Test in all cases: NCI-60 cell line screen, 48 h
# A498 renal = tested on: A498 renal
# DU-145 prostate = tested on: DU-145 prostate
# A549 NSCLC = tested on: A549 NSCLC
# CAKI-1 renal = tested on: CAKI-1 renal
# RPMI-8226 leukemia = tested on: RPMI-8226 leukemia
# SF-268 CNS = tested on: SF-268 CNS
# COLO 205 colon = tested on: COLO 205 colon
# HS 578T breast = tested on: HS 578T breast
# U251 CNS = tested on: U251 CNS
# OVCAR-8 ovarian = tested on: OVCAR-8 ovarian
# HOP-92 NSCLC = tested on: HOP-92 NSCLC
# TK-10 renal = tested on: TK-10 renal
# HL-60(TB) leukemia = tested on: HL-60(TB) leukemia
# NCI-H226 lung = tested on: NCI-H226 lung
# HT29 colon = tested on: HT29 colon
# HOP-62 NSCLC = tested on: HOP-62 NSCLC
# NCI-H23 lung = tested on: NCI-H23 lung
# IGROV1 ovarian = tested on: IGROV1 ovarian
# KM12 colon = tested on: KM12 colon
# M14 melanoma = tested on: M14 melanoma
# SN12C renal = tested on: SN12C renal
# SW-620 colon = tested on: SW-620 colon
# K-562 leukemia = tested on: K-562 leukemia
# RXF 393 renal = tested on: RXF 393 renal
# MALME-3M melanoma = tested on: MALME-3M melanoma
# SNB-75 CNS = tested on: SNB-75 CNS
# 786-0 renal = tested on: 786-0 renal
# BT-549 breast = tested on: BT-549 breast
# UACC-257 melanoma = tested on: UACC-257 melanoma
# SF-539 CNS = tested on: SF-539 CNS
# SK-OV-3 ovarian = tested on: SK-OV-3 ovarian
# LOX IMVI melanoma = tested on: LOX IMVI melanoma
# CCRF-CEM leukemia = tested on: CCRF-CEM leukemia
# OVCAR-4 ovarian = tested on: OVCAR-4 ovarian
# SK-MEL-5 melanoma = tested on: SK-MEL-5 melanoma
# NCI-H460 lung = tested on: NCI-H460 lung
# HCC-2998 colon = tested on: HCC-2998 colon
# UACC-62 melanoma = tested on: UACC-62 melanoma
# SNB-19 CNS = tested on: SNB-19 CNS
# UO-31 renal = tested on: UO-31 renal
# OVCAR-3 ovarian = tested on: OVCAR-3 ovarian
# NCI-H522 lung = tested on: NCI-H522 lung
# PC-3 prostate = tested on: PC-3 prostate
# HCT-15 colon = tested on: HCT-15 colon
# HCT-116 colon = tested on: HCT-116 colon
# SF-295 CNS = tested on: SF-295 CNS
# ACHN renal = tested on: ACHN renal
# MDA-MB-231 breast = tested on: MDA-MB-231 breast
# MOLT-4 leukemia = tested on: MOLT-4 leukemia
# SR leukemia = tested on: SR leukemia
# MCF7 breast = tested on: MCF7 breast
compound,measurement,setting,value
Nc1c(C(=O)Nc2ccccc2)sc2nc3c(cc12)C(O)CCC3 (stereo not given),GI50,A498 renal,273 nM
same,TGI,A498 renal,> 100000 nM
same,GI50,DU-145 prostate,355 nM
same,TGI,DU-145 prostate,> 100000 nM
same,GI50,A549 NSCLC,406 nM
same,TGI,A549 NSCLC,> 100000 nM
same,GI50,CAKI-1 renal,349 nM
same,TGI,CAKI-1 renal,> 100000 nM
same,GI50,RPMI-8226 leukemia,372 nM
same,TGI,RPMI-8226 leukemia,> 100000 nM
same,GI50,SF-268 CNS,700 nM
same,TGI,SF-268 CNS,> 100000 nM
same,GI50,COLO 205 colon,295 nM
same,TGI,COLO 205 colon,2630 nM
same,GI50,HS 578T breast,362 nM
same,TGI,HS 578T breast,> 100000 nM
same,GI50,U251 CNS,362 nM
same,TGI,U251 CNS,> 100000 nM
same,GI50,OVCAR-8 ovarian,471 nM
same,TGI,OVCAR-8 ovarian,> 100000 nM
same,GI50,HOP-92 NSCLC,264 nM
same,TGI,HOP-92 NSCLC,> 100000 nM
same,GI50,TK-10 renal,> 100000 nM
same,TGI,TK-10 renal,> 100000 nM
same,GI50,HL-60(TB) leukemia,232 nM
same,TGI,HL-60(TB) leukemia,706 nM
same,GI50,NCI-H226 lung,1270 nM
same,TGI,NCI-H226 lung,> 100000 nM
same,GI50,HT29 colon,323 nM
same,GI50,HOP-62 NSCLC,455 nM
same,TGI,HOP-62 NSCLC,> 100000 nM
same,GI50,NCI-H23 lung,665 nM
same,TGI,NCI-H23 lung,> 100000 nM
same,GI50,IGROV1 ovarian,650 nM
same,TGI,IGROV1 ovarian,> 100000 nM
same,GI50,KM12 colon,440 nM
same,TGI,KM12 colon,> 100000 nM
same,GI50,M14 melanoma,281 nM
same,TGI,M14 melanoma,> 100000 nM
same,GI50,SN12C renal,559 nM
same,TGI,SN12C renal,> 100000 nM
same,GI50,SW-620 colon,371 nM
same,TGI,SW-620 colon,> 100000 nM
same,GI50,K-562 leukemia,196 nM
same,TGI,K-562 leukemia,> 100000 nM
same,GI50,RXF 393 renal,349 nM
same,TGI,RXF 393 renal,> 100000 nM
same,GI50,MALME-3M melanoma,256 nM
same,TGI,MALME-3M melanoma,> 100000 nM
same,GI50,SNB-75 CNS,278 nM
same,TGI,SNB-75 CNS,> 100000 nM
same,GI50,786-0 renal,623 nM
same,TGI,786-0 renal,> 100000 nM
same,GI50,BT-549 breast,1240 nM
same,TGI,BT-549 breast,> 100000 nM
same,GI50,UACC-257 melanoma,> 100000 nM
same,TGI,UACC-257 melanoma,> 100000 nM
same,GI50,SF-539 CNS,225 nM
same,TGI,SF-539 CNS,604 nM
same,GI50,SK-OV-3 ovarian,439 nM
same,TGI,SK-OV-3 ovarian,> 100000 nM
same,GI50,LOX IMVI melanoma,638 nM
same,TGI,LOX IMVI melanoma,> 100000 nM
same,GI50,CCRF-CEM leukemia,323 nM
same,TGI,CCRF-CEM leukemia,> 100000 nM
same,GI50,OVCAR-4 ovarian,3660 nM
same,TGI,OVCAR-4 ovarian,> 100000 nM
same,GI50,SK-MEL-5 melanoma,407 nM
same,TGI,SK-MEL-5 melanoma,23900 nM
same,GI50,NCI-H460 lung,355 nM
same,TGI,NCI-H460 lung,> 100000 nM
same,GI50,HCC-2998 colon,1070 nM
same,TGI,HCC-2998 colon,> 79300 nM
same,GI50,UACC-62 melanoma,444 nM
same,TGI,UACC-62 melanoma,> 100000 nM
same,GI50,SNB-19 CNS,577 nM
same,TGI,SNB-19 CNS,> 100000 nM
same,GI50,UO-31 renal,689 nM
same,TGI,UO-31 renal,> 100000 nM
same,GI50,OVCAR-3 ovarian,344 nM
same,TGI,OVCAR-3 ovarian,> 100000 nM
same,GI50,NCI-H522 lung,280 nM
same,GI50,PC-3 prostate,325 nM
same,TGI,PC-3 prostate,> 100000 nM
same,GI50,HCT-15 colon,336 nM
same,TGI,HCT-15 colon,> 100000 nM
same,GI50,HCT-116 colon,488 nM
same,TGI,HCT-116 colon,> 100000 nM
same,GI50,SF-295 CNS,297 nM
same,TGI,SF-295 CNS,> 100000 nM
same,GI50,ACHN renal,981 nM
same,TGI,ACHN renal,> 100000 nM
same,GI50,MDA-MB-231 breast,946 nM
same,TGI,MDA-MB-231 breast,> 100000 nM
same,GI50,MOLT-4 leukemia,491 nM
same,TGI,MOLT-4 leukemia,> 100000 nM
same,GI50,SR leukemia,168 nM
same,TGI,SR leukemia,> 100000 nM
same,GI50,MCF7 breast,241 nM
same,TGI,MCF7 breast,> 100000 nM
